Assays:
Escherichia coli [1] = assay: Antibacterial activity against Escherichia coli MG1655 harboring pRecA-lux assessed as maximum induction factor at 10^-9 M after 120 mins by luminometric analysis; assay type: functional, K-12 substr. MG1655
Escherichia coli [2] = assay: Antibacterial activity against Escherichia coli MG1655 harboring pKatG-lux assessed as maximum induction factor at 10^-5 M after 120 mins by luminometric analysis; assay type: functional, K-12 substr. MG1655
Escherichia coli [3] = assay: Antibacterial activity against Escherichia coli MG1655 harboring pRecA-lux assessed as maximum induction factor at 10^-8 M after 120 mins by luminometric analysis; assay type: functional, K-12 substr. MG1655
Vibrio sp. [4] = assay: Antibacterial activity against Vibrio aqamarinus VKPM B-11245 assessed as toxicity index at 10^-10 M measured for 2 hrs by luminometric analysis; assay type: functional
Escherichia coli [5] = assay: Antibacterial activity against Escherichia coli MG1655 harboring pColD-lux assessed as maximum induction factor at 10^-13 M after 120 mins by luminometric analysis; assay type: functional, K-12 substr. MG1655
[6] = Activation of quorum sensing system luxR in Escherichia coli MG1655 harboring pVFR1-lux assessed as maximum induction factor at 10^-9 M after 120 mins by luminometric analysis; conditions: Escherichia coli str. K-12 substr. MG1655
Escherichia coli [7] = assay: Antibacterial activity against Escherichia coli MG1655 harboring pRecA-lux assessed as maximum induction factor at 10^-6 M after 120 mins by luminometric analysis; assay type: functional, K-12 substr. MG1655
Escherichia coli [8] = assay: Antibacterial activity against Escherichia coli MG1655 harboring pColD-lux assessed as maximum induction factor at 10^-12 M after 120 mins by luminometric analysis; assay type: functional, K-12 substr. MG1655
Escherichia coli [9] = assay: Antibacterial activity against Escherichia coli MG1655 harboring pKatG-lux assessed as maximum induction factor at 10^-9 M after 120 mins by luminometric analysis; assay type: functional, K-12 substr. MG1655
Escherichia coli [10] = assay: Antibacterial activity against Escherichia coli MG1655 harboring pIbpA-lux assessed as maximum induction factor at 10^-5 M after 120 mins by luminometric analysis; assay type: functional, K-12 substr. MG1655
Escherichia coli [11] = assay: Antibacterial activity against Escherichia coli MG1655 harboring pGrpE-lux assessed as maximum induction factor at 10^-12 M after 120 mins by luminometric analysis; assay type: functional, K-12 substr. MG1655
Escherichia coli [12] = assay: Antibacterial activity against Escherichia coli MG1655 harboring pIbpA-lux assessed as maximum induction factor at 10^-9 M after 120 mins by luminometric analysis; assay type: functional, K-12 substr. MG1655
[13] = Activation of quorum sensing system luxR in Escherichia coli MG1655 harboring pVFR1-lux assessed as maximum induction factor at 10^-3 M after 120 mins by luminometric analysis; conditions: Escherichia coli str. K-12 substr. MG1655
Escherichia coli [14] = assay: Antibacterial activity against Escherichia coli MG1655 harboring pIbpA-lux assessed as maximum induction factor at 10^-3 M after 120 mins by luminometric analysis; assay type: functional, K-12 substr. MG1655
Escherichia coli [15] = assay: Antibacterial activity against Escherichia coli MG1655 harboring pIbpA-lux assessed as maximum induction factor at 10^-14 M after 120 mins by luminometric analysis; assay type: functional, K-12 substr. MG1655
[16] = Activation of quorum sensing system luxR in Escherichia coli MG1655 harboring pVFR1-lux assessed as maximum induction factor at 10^-13 M after 120 mins by luminometric analysis; conditions: Escherichia coli str. K-12 substr. MG1655
Escherichia coli [17] = assay: Antibacterial activity against Escherichia coli MG1655 harboring pColD-lux assessed as maximum induction factor at 10^-7 M after 120 mins by luminometric analysis; assay type: functional, K-12 substr. MG1655
Escherichia coli [18] = assay: Antibacterial activity against Escherichia coli MG1655 harboring pSoxS-lux assessed as maximum induction factor at 10^-10 M after 120 mins by luminometric analysis; assay type: functional, K-12 substr. MG1655
Escherichia coli [19] = assay: Antibacterial activity against Escherichia coli MG1655 harboring pColD-lux assessed as maximum induction factor at 10^-11 M after 120 mins by luminometric analysis; assay type: functional, K-12 substr. MG1655
Escherichia coli [20] = assay: Antibacterial activity against Escherichia coli MG1655 harboring pXen7 assessed as toxicity index at 10^-13 M measured for 2 hrs by luminometric analysis; assay type: functional, K-12 substr. MG1655
Escherichia coli [21] = assay: Antibacterial activity against Escherichia coli MG1655 harboring pXen7 assessed as toxicity index at 10^-5 M measured for 2 hrs by luminometric analysis; assay type: functional, K-12 substr. MG1655
Escherichia coli [22] = assay: Antibacterial activity against Escherichia coli MG1655 harboring pXen7 assessed as toxicity index at 10^-6 M measured for 2 hrs by luminometric analysis; assay type: functional, K-12 substr. MG1655
Escherichia coli [23] = assay: Antibacterial activity against Escherichia coli MG1655 harboring pGrpE-lux assessed as maximum induction factor at 10^-14 M after 120 mins by luminometric analysis; assay type: functional, K-12 substr. MG1655
Escherichia coli [24] = assay: Antibacterial activity against Escherichia coli MG1655 harboring pRecA-lux assessed as maximum induction factor at 10^-13 M after 120 mins by luminometric analysis; assay type: functional, K-12 substr. MG1655
Escherichia coli [25] = assay: Antibacterial activity against Escherichia coli MG1655 harboring pKatG-lux assessed as maximum induction factor at 10^-4 M after 120 mins by luminometric analysis; assay type: functional, K-12 substr. MG1655
Escherichia coli [26] = assay: Antibacterial activity against Escherichia coli MG1655 harboring pKatG-lux assessed as maximum induction factor at 10^-14 M after 120 mins by luminometric analysis; assay type: functional, K-12 substr. MG1655
Escherichia coli [27] = assay: Antibacterial activity against Escherichia coli MG1655 harboring pSoxS-lux assessed as maximum induction factor at 10^-3 M after 120 mins by luminometric analysis; assay type: functional, K-12 substr. MG1655
[28] = Activation of quorum sensing system luxR in Escherichia coli MG1655 harboring pVFR1-lux assessed as maximum induction factor at 10^-5 M after 120 mins by luminometric analysis; conditions: Escherichia coli str. K-12 substr. MG1655
Vibrio sp. [29] = assay: Antibacterial activity against Vibrio aqamarinus VKPM B-11245 assessed as toxicity index at 10^-14 M measured for 2 hrs by luminometric analysis; assay type: functional
[30] = Activation of quorum sensing system luxR in Escherichia coli MG1655 harboring pVFR1-lux assessed as maximum induction factor at 10^-12 M after 120 mins by luminometric analysis; conditions: Escherichia coli str. K-12 substr. MG1655
Escherichia coli [31] = assay: Antibacterial activity against Escherichia coli MG1655 harboring pColD-lux assessed as maximum induction factor at 10^-5 M after 120 mins by luminometric analysis; assay type: functional, K-12 substr. MG1655
Escherichia coli [32] = assay: Antibacterial activity against Escherichia coli MG1655 harboring pGrpE-lux assessed as maximum induction factor at 10^-13 M after 120 mins by luminometric analysis; assay type: functional, K-12 substr. MG1655
[33] = Activation of quorum sensing system luxR in Escherichia coli MG1655 harboring pVFR1-lux assessed as maximum induction factor at 10^-7 M after 120 mins by luminometric analysis; conditions: Escherichia coli str. K-12 substr. MG1655
Escherichia coli [34] = assay: Antibacterial activity against Escherichia coli MG1655 harboring pGrpE-lux assessed as maximum induction factor at 10^-6 M after 120 mins by luminometric analysis; assay type: functional, K-12 substr. MG1655
Escherichia coli [35] = assay: Antibacterial activity against Escherichia coli MG1655 harboring pKatG-lux assessed as maximum induction factor at 10^-10 M after 120 mins by luminometric analysis; assay type: functional, K-12 substr. MG1655
[36] = Activation of quorum sensing system luxR in Escherichia coli MG1655 harboring pVFR1-lux assessed as maximum induction factor at 10^-11 M after 120 mins by luminometric analysis; conditions: Escherichia coli str. K-12 substr. MG1655
Escherichia coli [37] = assay: Antibacterial activity against Escherichia coli MG1655 harboring pRecA-lux assessed as maximum induction factor at 10^-5 M after 120 mins by luminometric analysis; assay type: functional, K-12 substr. MG1655
Escherichia coli [38] = assay: Antibacterial activity against Escherichia coli MG1655 harboring pKatG-lux assessed as maximum induction factor at 10^-12 M after 120 mins by luminometric analysis; assay type: functional, K-12 substr. MG1655
Escherichia coli [39] = assay: Antibacterial activity against Escherichia coli MG1655 harboring pSoxS-lux assessed as maximum induction factor at 10^-13 M after 120 mins by luminometric analysis; assay type: functional, K-12 substr. MG1655

## O=[N+]([O-])c1cc([N+](=O)[O-])c2no[n+]([O-])c2c1Sc1nc2ccccc2s1
Escherichia coli [1]
  Activity: 1.02
Escherichia coli [2]
  Activity: 0.71
Escherichia coli [3]
  Activity: 0.99
Vibrio sp. [4]
  Activity: 11.61
Escherichia coli [5]
  Activity: 1.01
[6]
  Activity: 1.74
Escherichia coli [7]
  Activity: 0.92
Escherichia coli [8]
  Activity: 1.1
Escherichia coli [9]
  Activity: 0.96
Escherichia coli [10]
  Activity: 1.08
Escherichia coli [11]
  Activity: 1.31
Escherichia coli [12]
  Activity: 1.09
[13]
  Activity: 1.68
Escherichia coli [14]
  Activity: 1.19
Escherichia coli [15]
  Activity: 1.46
[16]
  Activity: 1.77
Escherichia coli [17]
  Activity: 1.07
Escherichia coli [18]
  Activity: 1.33
Escherichia coli [19]
  Activity: 1.07
Escherichia coli [20]
  Activity: 0
Escherichia coli [21]
  Activity: 33.59
Escherichia coli [22]
  Activity: 10.3
Escherichia coli [23]
  Activity: 1.13
Escherichia coli [24]
  Activity: 0.98
Escherichia coli [25]
  Activity: 0.3
Escherichia coli [26]
  Activity: 0.78
Escherichia coli [27]
  Activity: 1.8
[28]
  Activity: 1.64
Vibrio sp. [29]
  Activity: 5.94
[30]
  Activity: 2.96
Escherichia coli [31]
  Activity: 0.87
Escherichia coli [32]
  Activity: 0.96
[33]
  Activity: 1.71
Escherichia coli [34]
  Activity: 1.15
Escherichia coli [35]
  Activity: 1.02
[36]
  Activity: 1.51
Escherichia coli [37]
  Activity: 0.93
Escherichia coli [38]
  Activity: 1.12
Escherichia coli [39]
  Activity: 1.03

— ChEMBL document CHEMBL3407459, “Synthesis and antimicrobial activity of novel structural hybrids of benzofuroxan and benzothiazole derivatives” (2015)
